Assay results reported in patent US11434234B2, “Methods and agents for treating disease” (ANGION BIOMEDICA CORP., priority 2014, dated 2022).

What follows are molecules tested against T1, human CYP11B2 (Homo sapiens, UniProt P19099) (assay: Aldosterone inhibitory activity in V79 cells expressing human CYP11B2). Conditions: V79 Chinese hamster cells stably transfected with human CYP11B2; substrate 11-deoxycorticosterone 100 nM; read-out: IC50, inhibition of the production of aldosterone.
T1 construct: expressed in transfected cells; host or cells: V79 Chinese hamster cells
T1 sequence (P19099 25-503): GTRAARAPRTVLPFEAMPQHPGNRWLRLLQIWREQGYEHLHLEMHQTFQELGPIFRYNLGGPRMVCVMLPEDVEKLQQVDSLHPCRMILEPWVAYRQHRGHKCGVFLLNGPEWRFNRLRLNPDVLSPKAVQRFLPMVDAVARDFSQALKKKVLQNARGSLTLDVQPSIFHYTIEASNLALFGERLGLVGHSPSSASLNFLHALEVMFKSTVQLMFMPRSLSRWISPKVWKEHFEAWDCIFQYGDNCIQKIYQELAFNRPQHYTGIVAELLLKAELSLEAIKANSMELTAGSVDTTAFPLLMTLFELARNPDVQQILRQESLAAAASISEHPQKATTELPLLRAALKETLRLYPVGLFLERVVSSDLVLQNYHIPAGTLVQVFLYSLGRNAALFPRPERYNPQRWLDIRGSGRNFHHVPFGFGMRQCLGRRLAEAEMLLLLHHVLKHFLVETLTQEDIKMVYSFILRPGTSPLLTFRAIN
Format: cell-based
Protocol: For the determination of aldosterone inhibitory activity, tests were carried out using V79 Chinese hamster cells stably transfected with human CYP11B2 or CYP11B1 and using assay protocols as described in Ehmer P B, Bureik M, Bernhardt R, Muller U, Hartmann R W. Development of a test system for inhibitors of human aldosterone synthase (CYP11B2): screening in fission yeast and evaluation of selectivity in V79 cells. J. Steroid Biochem. Mol. Biol. 2002 June; 81(2):173-9. The concentration of the substrate 11-deoxycorticosterone in the assay was 100 nM.

| Structure (SMILES) | IC50 |
| --- | --- |
| CCCC(O)(c1nc2cccc(OC)c2s1)c1cnccc1OCC (stereo not shown) [Example 44, 1-(4-ethoxypyridin-3-yl)-1-(7-methoxybenzo[d]thiazol-2-yl)butan-1-ol] | < 1000 nM |
| CCCC(O)(c1nc2ccc(C(F)(F)F)cc2s1)c1cnccc1OCC (stereo not shown) [Example 45, 1-(4-ethoxypyridin-3-yl)-1-(6-(trifluoromethyl)benzo[d]thiazol-2-yl)butan-1-ol] | < 1000 nM |
| CCCC(O)(c1nc2ccc(OC(F)(F)F)cc2s1)c1cnccc1OCC (stereo not shown) [Example 46, 1-(4-ethoxypyridin-3-yl)-1-(6-(trifluoromethoxy)benzo[d]thiazol-2-yl)butan-1-ol] | < 1000 nM |
| CCCC(O)(c1nc2cccc(C(F)(F)F)c2s1)c1cnccc1OCC (stereo not shown) [Example 47, 1-(4-ethoxypyridin-3-yl)-1-(7-(trifluoromethyl)benzo[d]thiazol-2-yl)butan-1-ol] | < 1000 nM |
| CCCC(O)(c1nc2ccc(OC)cc2s1)c1cnccc1OCC (stereo not shown) [Example 48, 1-(4-ethoxypyridin-3-yl)-1-(6-methoxybenzo[d]thiazol-2-yl)butan-1-ol] | < 1000 nM |
| CCCC(O)(c1nc2ccc(OC(F)(F)F)cc2s1)c1cnccc1OC(C)C (stereo not shown) [Example 49, 1-(4-isopropoxypyridin-3-yl)-1-(6-(trifluoromethoxy)benzo[d]thiazol-2-yl)butan-1-ol] | < 1000 nM |
| CCCC(O)(c1nc2cc(Cl)c(Cl)cc2s1)c1cnccc1OCC (stereo not shown) [Example 50, 1-(5,6-dichlorobenzo[d]thiazol-2-yl)-1-(4-ethoxypyridin-3-yl)butan-1-ol] | < 1000 nM |
| CCCOc1ccncc1C(O)(CCC)c1nc2ccc(OC(F)(F)F)cc2s1 (stereo not shown) [Example 51, 1-(4-propoxypyridin-3-yl)-1-(6-(trifluoromethoxy)benzo[d]thiazol-2-yl)butan-1-ol] | < 1000 nM |
| CCCC(O)(c1nc2cc3c(cc2s1)OC(F)(F)O3)c1cnccc1OCC (stereo not shown) [Example 52, 1-(2,2-difluoro-[1,3]dioxolo[4′,5′:4,5]benzo[1,2-d]thiazol-6-yl)-1-(4-ethoxypyridin-3-yl)butan-1-ol] | < 1000 nM |
| CCCC(O)(c1nc2ccc(Oc3ccc(OC(F)(F)F)cc3)cc2s1)c1cnccc1OCC (stereo not shown) [Example 54, 1-(4-ethoxypyridin-3-yl)-1-(6-(4-(trifluoromethoxy)phenoxy)benzo[d]thiazol-2-yl)butan-1-ol] | < 1000 nM |
| CCCC(O)(c1nc2ccc(Oc3ccc(F)cc3)cc2s1)c1cnccc1OCC (stereo not shown) [Example 55, 1-(4-ethoxypyridin-3-yl)-1-(6-(4-fluorophenoxy)benzo[d]thiazol-2-yl)butan-1-ol] | < 1000 nM |
| CCCC(O)(c1nc2cc(Br)c(OC(F)(F)F)cc2s1)c1cnccc1OCC (stereo not shown) [Example 56, 1-(5-bromo-6-(trifluoromethoxy)benzo[d]thiazol-2-yl)-1-(4-ethoxypyridin-3-yl)butan-1-ol] | < 1000 nM |
| CCCC(O)(c1nc2ccc(OC(F)(F)F)c(Br)c2s1)c1cnccc1OCC (stereo not shown) [Example 57, 1-(7-bromo-6-(trifluoromethoxy)benzo[d]thiazol-2-yl)-1-(4-ethoxypyridin-3-yl)butan-1-ol] | < 1000 nM |
| CCCC(O)(c1nc2cc(Cl)c(OC(F)(F)F)cc2s1)c1cnccc1OCC (stereo not shown) [Example 58, 1-(5-chloro-6-(trifluoromethoxy)benzo[d]thiazol-2-yl)-1-(4-ethoxypyridin-3-yl)butan-1-ol] | < 1000 nM |
| CCCC(O)(c1nc2ccc(OC(F)(F)F)c(Cl)c2s1)c1cnccc1OCC (stereo not shown) [Example 59, 1-(7-chloro-6-(trifluoromethoxy)benzo[d]thiazol-2-yl)-1-(4-ethoxypyridin-3-yl)butan-1-ol] | < 1000 nM |
| CCCC(O)(c1nc2cc(C)c(OC(F)(F)F)cc2s1)c1cnccc1OCC (stereo not shown) [Example 60, 1-(4-ethoxypyridin-3-yl)-1-(5-methyl-6-(trifluoromethoxy)benzo[d]thiazol-2-yl)butan-1-ol] | < 1000 nM |
| CCCC(O)(c1nc2ccc(OC(F)(F)F)c(C)c2s1)c1cnccc1OCC (stereo not shown) [Example 61, 1-(4-ethoxypyridin-3-yl)-1-(7-methyl-6-(trifluoromethoxy)benzo[d]thiazol-2-yl)butan-1-ol] | < 1000 nM |

Continued, values first:

| IC50 | Structure (SMILES) |
| --- | --- |
| < 1000 nM | COc1ccncc1C(O)(c1nc2cccc(Br)c2s1)C(C)C (stereo not shown) [1-(7-bromobenzo[d]thiazol-2-yl)-1-(4-methoxypyridin-3-yl)-2-methylpropan-1-ol] |
| < 1000 nM | CCOc1ccncc1C(O)(c1nc2cccc(Br)c2s1)C(C)C (stereo not shown) [Example 1, 1-(7-bromobenzo[d]thiazol-2-yl)-1-(4-ethoxypyridin-3-yl)-2-methylpropan-1-ol] |
| < 1000 nM | CCCC(O)(c1cncc(OC)c1)c1nc2ccc(F)cc2s1 (stereo not shown) [Example 20, 1-(6-fluorobenzo[d]thiazol-2-yl)-1-(5-methoxypyridin-3-yl)butan-1-ol] |
| < 1000 nM | CCCC(O)(c1nc2cccc(Br)c2s1)c1cnccc1OC (stereo not shown) [Example 24, 1-(7-bromobenzo[d]thiazol-2-yl)-1-(4-methoxypyridin-3-yl)butan-1-ol] |
| < 1000 nM | COc1ccncc1C(O)(c1nc2ccc(Br)cc2s1)C(C)C (stereo not shown) [Example 25, 1-(6-bromobenzo[d]thiazol-2-yl)-1-(4-methoxypyridin-3-yl)-2-methylpropan-1-ol] |
| < 1000 nM | COc1ccncc1C(O)c1nc2ccc(Br)cc2s1 (stereo not shown) [Example 26, (6-bromobenzo[d]thiazol-2-yl)(4-methoxypyridin-3-yl)methanol] |
| < 1000 nM | COc1ccncc1C(O)c1nc2cccc(Br)c2s1 (stereo not shown) [Example 27, (7-bromobenzo[d]thiazol-2-yl)(4-methoxypyridin-3-yl)methanol] |
| < 1000 nM | CCCC(O)(c1nc2ccc([N+](=O)[O-])cc2s1)c1cnccc1OC (stereo not shown) [Example 28, 1-(4-methoxypyridin-3-yl)-1-(6-nitrobenzo[d]thiazol-2-yl)butan-1-ol] |
| < 1000 nM | CCCC(O)(c1nc2ccc(Br)cc2s1)c1cnccc1OCC (stereo not shown) [Example 29, 1-(6-bromobenzo[d]thiazol-2-yl)-1-(4-ethoxypyridin-3-yl)butan-1-ol] |
| < 1000 nM | CCCC(O)(c1nc2cccc(Br)c2s1)c1cnccc1OCC (stereo not shown) [Example 30, 1-(7-bromobenzo[d]thiazol-2-yl)-1-(4-ethoxypyridin-3-yl)butan-1-ol] |
| < 1000 nM | COc1ccncc1C(O)(c1nc2ccccc2s1)C(C)(C)C (stereo not shown) [Example 31, 1-(benzo[d]thiazol-2-yl)-1-(4-methoxypyridin-3-yl)-2,2-dimethylpropan-1-ol] |
| < 1000 nM | CCOc1ccncc1C(O)(c1nc2ccc(Br)cc2s1)C(C)C (stereo not shown) [Example 32, 1-(6-bromobenzo[d]thiazol-2-yl)-1-(4-ethoxypyridin-3-yl)-2-methylpropan-1-ol] |
| < 1000 nM | CC(C)c1ccncc1C(O)(c1nc2ccc(Br)cc2s1)C(C)C (stereo not shown) [Example 33, 1-(6-bromobenzo[d]thiazol-2-yl)-1-(4-isopropylpyridin-3-yl)-2-methylpropan-1-ol] |
| < 1000 nM | CC(C)c1ccncc1C(O)(c1nc2cccc(Br)c2s1)C(C)C (stereo not shown) [Example 34, 1-(7-bromobenzo[d]thiazol-2-yl)-1-(4-isopropylpyridin-3-yl)-2-methylpropan-1-ol] |
| < 1000 nM | CC(C)Oc1ccncc1C(O)(c1nc2ccc(Br)cc2s1)C(C)C (stereo not shown) [Example 35, 1-(6-bromobenzo[d]thiazol-2-yl)-1-(4-isopropoxypyridin-3-yl)-2-methylpropan-1-ol] |
| < 1000 nM | CC(C)Oc1ccncc1C(O)(c1nc2cccc(Br)c2s1)C(C)C (stereo not shown) [Example 36, 1-(7-bromobenzo[d]thiazol-2-yl)-1-(4-isopropoxypyridin-3-yl)-2-methylpropan-1-ol] |
| < 1000 nM | CCCC(O)(c1nc2ccc(Br)cc2s1)c1cnccc1C(C)C (stereo not shown) [Example 37, 1-(6-bromobenzo[d]thiazol-2-yl)-1-(4-isopropylpyridin-3-yl)butan-1-ol] |
| < 1000 nM | CCCC(O)(c1nc2cccc(Br)c2s1)c1cnccc1C(C)C (stereo not shown) [Example 38, 1-(7-bromobenzo[d]thiazol-2-yl)-1-(4-isopropylpyridin-3-yl)butan-1-ol] |
| < 1000 nM | CCCC(O)(c1nc2ccc(Cl)cc2s1)c1cnccc1OCC (stereo not shown) [Example 39, 1-(6-chlorobenzo[d]thiazol-2-yl)-1-(4-ethoxypyridin-3-yl)butan-1-ol] |
| < 1000 nM | CCCC(O)(c1nc2ccc([N+](=O)[O-])cc2s1)c1cnccc1OCC (stereo not shown) [Example 40, 1-(4-ethoxypyridin-3-yl)-1-(6-nitrobenzo[d]thiazol-2-yl)butan-1-ol] |
| < 1000 nM | CCCC(O)(c1nc2ccc(F)cc2s1)c1cnccc1OCC (stereo not shown) [Example 41, 1-(4-ethoxypyridin-3-yl)-1-(6-fluorobenzo[d]thiazol-2-yl)butan-1-ol] |
| < 1000 nM | CCCC(O)(c1nc2cccc(Cl)c2s1)c1cnccc1OCC (stereo not shown) [Example 42, 1-(7-chlorobenzo[d]thiazol-2-yl)-1-(4-ethoxypyridin-3-yl)butan-1-ol] |
| < 1000 nM | CCCC(O)(c1nc2c(F)ccc(F)c2s1)c1cnccc1OCC (stereo not shown) [Example 43, 1-(4,7-difluorobenzo[d]thiazol-2-yl)-1-(4-ethoxypyridin-3-yl)butan-1-ol] |
